Results published in patent publication US9931629B2, “Substance exposure apparatus” (The University of Queensland, priority 2011, dated 2018).
“Also recorded” adds a separate entry of the source.

Tests used:
Type in all cases: cell-based, human
HES3-MIXL1-GFP hESCs [1] = test: Primitive streak differentiation screening in array of BIO, BMP-4 and Activin A (MIXL1-GFP reporter)
Method: Cells were allowed to attach to the well array 330 for 8-10 h in an incubator (37° C., 5% CO2 in air), then subjected to continuous fluid flow under the specified factor conditions at 60 μL/h total flowrate.
Serial exchange of staining and washing solutions was driven by a syringe pump.
Spot intensities in each channel were linearly transformed about the mean and standard deviation for all spots in that channel in an individual array, by IEOS-GFP=(TEOS-GFP−μEOS-GFP)/σEOS-GFP, where IEOS-GFP is the expression index of EOS-GFP, and μEOS-GFP is the mean and σEOS-GFP the standard deviation of all TEOS-GFP for a particular array. This provides expression indices (IEOS-GFP, IMIXL1-GFP) rating each spot's intensity in terms of global standard deviations relative to the global mean.
Factorial analyses are performed on expression index data with MINITAB 15 software (Minitab Inc.). Expression indices were designated as response variables and soluble factors designated as inputs. A fourth input variable, ‘Position’, was defined based on each culture well's row coordinate in the array. Effect magnitudes were then generated by MINITAB according to methods described elsewhere^45. Pearson product-moment correlation coefficients (rX,Y), coefficients of determination for linear regression (R^2), and Student's t-test statistics were calculated with Microsoft Excel. For Student's t-tests, two-tailed tests were performed for two samples assuming unequal variances, and differences with p<0.05 were considered significant.
HES3-MIXL1-GFP hESCs (also, HES3 MIXL1^GFP/w hESCs; karyotying and in vivo teratomas) growing as a monolayer were differentiated under continual flow in the apparatus 300 for 2.5 d in a full-factorial array of BMP-4, Activin A, and the GSK-3β inhibitor/canonical Wnt activator 6-bromoindirubin-3′-oxime (BIO) in RPMI B27 medium. A screening panel showing array conditions is shown in FIG. 6A, with numbers indicating concentrations of BIO (μM), BMP-4 (ng/mL) and Activin A (ng/mL).

HES3-MIXL1-GFP hESCs [2] = test: Primitive streak array screening of CHIR99021, conditioned medium and IWP-4 (MIXL1-GFP reporter); conditions: background RPMI B27 with 10 ng/mL BMP-4 and 6 ng/mL Activin A, continuous flow
Method: For use in apparatus 300, conditioned medium was recovered from static controls differentiated in 10 ng/mL BMP-4 and 6 ng/mL Activin A in RPMI B27 medium. Cells were removed by centrifugation and supernatant medium stored at 4° C. Media from days 1 and 2 were mixed and BMP-4 and Activin A re-supplemented at 50% of nominal levels before use in arrays.

HES3-MIXL1-GFP hESCs [3] = test: Static primitive streak induction cultures with chemical modulation of Wnt signals
Method: HES3-MIXL1-GFP hESCs maintained in mTeSR-1/Matrigel cultures were detached with TrypLE Express, seeded at 7.5×10^4 cells/cm^2 into 24-well plates coated with a limiting dilution of hESC-qualified Matrigel and allowed to attach overnight, after which cultures were typically ˜60% confluent. MIXL1-GFP expression was then induced by differentiating in RPMI B27 medium with 10 ng/ml BMP-4 and 6 ng/ml Activin A (both R&D Systems) for 2.5 d with optional addition of 5 μM IWP-4 and 5 μM CHIR99021 (both Stemgent), or 0.1% v/v DMSO vehicle control.
Although such paracrine factor dependencies and negative feedback signals regulating mesendoderm specification are clearly necessary developmental drivers in a transient in vivo structure such as primitive streak, they inevitably reduce efficiency of in vitro differentiation. It was therefore tested whether the outcomes of modulating positive and negative paracrine regulators in the array could be translated to optimise directed differentiation protocols in conventional static cultures.

[4] = 2.5 d, continual flow, RPMI B27 medium

O=C1Nc2cc(Br)ccc2/C1=C1/Nc2ccccc2/C1=N\O [BIO, 6-bromoindirubin-3′-oxime]
optimum concentration for expression index IMIXL1-GFP (factorial analysis) (HES3-MIXL1-GFP hESCs [1]; 2.5 d, continual flow, RPMI B27 medium, levels 0, 1, 2 μM): 1 µM
number of rows over which bright MIXL1-GFP expression extended (HES3-MIXL1-GFP hESCs [1]; column 15: 1 μM BIO with 10 ng/mL BMP-4, 6 ng/mL Activin A, single peak at row 7 without BIO): 4-5 rows

Cc1c[nH]c(-c2cnc(NCCNc3ccc(C#N)cn3)nc2-c2ccc(Cl)cc2Cl)n1 [CHIR99021]
effect on MIXL1-GFP expression level and position in the array (HES3-MIXL1-GFP hESCs [2]): only shifted expression up marginally; also recorded: produced an extended streak of MIXL1-GFP expression
effect on MIXL1-GFP expression level and position in the array (HES3-MIXL1-GFP hESCs [2]; listed as CHIR): both improved the expression level and broadened the number of rows over which appreciable expression extended
MIXL1-GFP induction, % of cells (HES3-MIXL1-GFP hESCs [3]; 5 μM CHIR99021 added to RPMI B27+10 ng/mL BMP-4+6 ng/mL Activin A, 2.5 d, 51% under standard conditions): 86%

COc1ccccc1-n1c(SCC(=O)Nc2nc3ccc(C)cc3s2)nc2c(c1=O)SCC2 [IWP-4]
MIXL1 induction (HES3-MIXL1-GFP hESCs [3]; static controls, FIG. 7H, 5 μM IWP-4): completely blocked MIXL1 induction

B1: BMP-4: soluble growth factor (R&D Systems) used for primitive streak induction (protein, UniProt P12644 293-408, looked up)
Bone morphogenetic protein 4: SPKHHSQRARKKNKNCRRHSLYVDFSDVGWNDWIVAPPGYQAFYCHGDCPFPLADHLNSTNHAIVQTLVNSVNSSIPKACCVPTELSAISMLYLDEYDKVVLKNYQEMVVEGCGCR
optimum concentration for expression index IMIXL1-GFP (factorial analysis) (HES3-MIXL1-GFP hESCs [1]; [4]): 10 ng/mL

B2: Activin A: soluble growth factor (R&D Systems) used for primitive streak induction (protein, UniProt P08476 311-426, looked up)
Inhibin beta A chain: GLECDGKVNICCKKQFFVSFKDIGWNDWIIAPSGYHANYCEGECPSHIAGTSGSSLSFHSTVINHYRMRGHSPFANLKSCCVPTKLRPMSMLYYDDGQNIIKKDIQNMIVEECGCS
dependence of expression index IMIXL1-GFP on factor (factorial analysis) (HES3-MIXL1-GFP hESCs [1]; [4]): linear, positive dependence
